Measurements reported in patent US11958853B1, “6-substituted aminopyrazino[2′,1′:2,3]imidazo[4,5-c][1,7]naphthyridine compounds as CK2 inhibitors” (KING FAISAL UNIVERSITY, priority 2023, dated 2024).

Tests used:
[1] = test system: PC3 (prostate) cancer cells; assay: In vitro cytotoxic activity MTT assay, PC3; type: cell-based; settings: Homo sapiens, PC-3, exposed for 96 hours, 50% inhibition of cell proliferation, read-out: Cytotoxicity IC50, PC3 (prostate)
Description: (§1) Compounds 1-12 were screened for their in vitro cytotoxic activity utilizing a 3-(4,5-dimethyl-thiazol-2-yl)-2,5-diphenyltetrazolium bromide (MTT) assay against selected cancer human cell lines consisting of PC3 (prostate), HCT116 (colon), A375 (melanoma), H1299 (lung), MIAPaCa-2 (pancreas), HL60 (leukemia), MCF7 (breast), MDA-MB-231 (breast) (T. Mosmann, J. Immunol. Meth., 1983, 65, 55-63). The cells were cultured at 37° C. in RMPI1640 medium supplemented with 10% fetal bovine serum, 50 IU/mL penicillin, and 50 μg/mL streptomycin in a 5% CO2 incubator. All cells were sub-cultured 3 times/week by trypsinisation. Viable cells were seeded and allowed to adhere for 12 h before a test drug was added in 96-well plates at an initial density of 1.0×10^5 cells/mL. Tumour cell lines were separately exposed to various concentrations of the tested compounds followed by incubation at a temperature of 37° C. during 96 h inside a medium of fresh RMPI 1640. Cells were subsequently incubated at 37° C. using MTT at 0.5 mg/mL during 4 h. After removal of supernatant, formazan crystals were dissolved in isopropanol and the optical density was measured at 570 nm. CX-4945 was used as a positive control.

[2] = test system: HCT116 (colon) cancer cells; assay: In vitro cytotoxic activity MTT assay, HCT116; type: cell-based; settings: Homo sapiens, HCT-116, exposed for 96 hours, 50% inhibition of cell proliferation, read-out: Cytotoxicity IC50, HCT116 (colon)
Description: as §1

[3] = test system: A375 (melanoma) cancer cells; assay: In vitro cytotoxic activity MTT assay, A375; type: cell-based; settings: Homo sapiens, A-375, exposed for 96 hours, 50% inhibition of cell proliferation, read-out: Cytotoxicity IC50, A375 (melanoma)
Description: as §1

[4] = test system: H1299 (lung) cancer cells; assay: In vitro cytotoxic activity MTT assay, H1299; type: cell-based; settings: Homo sapiens, NCI-H1299, exposed for 96 hours, 50% inhibition of cell proliferation, read-out: Cytotoxicity IC50, H1299 (lung)
Description: as §1

[5] = test system: MIAPaCa-2 (pancreas) cancer cells; assay: In vitro cytotoxic activity MTT assay, MIAPaCa-2; type: cell-based; settings: Homo sapiens, MIA PaCa-2; MIAPaCa-2 cells, exposed for 96 hours, 50% inhibition of cell proliferation; read-out: Cytotoxicity IC50, MIAPaCa-2 (pancreas)
Description: as §1

[6] = test system: HL60 (leukemia) cancer cells; assay: In vitro cytotoxic activity MTT assay, HL60; type: cell-based; settings: Homo sapiens, HL-60, exposed for 96 hours, 50% inhibition of cell proliferation, read-out: Cytotoxicity IC50, HL60 (leukemia)
Description: as §1

[7] = test system: MCF7 (breast) cancer cells; assay: In vitro cytotoxic activity MTT assay, MCF7; type: cell-based; settings: Homo sapiens, exposed for 96 hours, 50% inhibition of cell proliferation, read-out: Cytotoxicity IC50, MCF7 (breast)
Description: as §1

[8] = test system: MDA-MB-231 (breast) cancer cells; assay: In vitro cytotoxic activity MTT assay, MDA-MB-231; type: cell-based; settings: Homo sapiens; MDA-MB-231 cells, exposed for 96 hours, 50% inhibition of cell proliferation; read-out: Cytotoxicity IC50, MDA-MB-231 (breast)
Description: as §1

[9] = molecular target: T1, recombinant human CK2 (RRββ-holoenzyme) (Homo sapiens, UniProt P68400); assay: CK2 Kinase Assay (33P-ATP, filter plate); type: biochemical; settings: final ATP concentration 15 μM, 10 min at 30° C, eight concentrations; read-out: protein kinase CK2 IC50
T1 construct: purchased Millipore
Description: CK2 Kinase Assay was conducted using the protocol as described in Pierre F. et al; J. Med. Chem. 2011, 54, 635-654. The tested compounds in aqueous solution were added at a volume of 10 μL to a reaction mixture comprising 10 μL of assay dilution buffer (ADB; 20 mM MOPS, pH 7.2, 25 mM β-glycerol phosphate, 5 mM EGTA, 1 mM sodium orthovanadate, and 1 mM dithiothreitol), 10 μL of substrate peptide (RRRDDDSDDD, dissolved in ADB at a concentration of 1 mM), 10 μL of recombinant human CK2 (RRββ-holoenzyme, 25 ng dissolved in ADB; Millipore). Reactions were initiated by the addition of 10 μL of ATP solution (90% 75 mM MgCl2, 75 μM ATP (final ATP concentration: 15 μM) dissolved in ADB; 10% [γ-33P] ATP (stock 1 mCi/100 μL; 3000 Ci/mmol (Perkin-Elmer) and maintained for 10 min at 30° C. The reactions were quenched with 100 μL of 0.75% phosphoric acid and then transferred to and filtered through a phosphor cellulose filter plate (Millipore). After washing each well five times with 0.75% phosphoric acid, the plate was dried under vacuum for 5 min and, following the addition of 15 μL of scintillation fluid to each well, the residual radioactivity was measured using a Wallac […] counter. The IC50 values were derived from eight concentrations of test inhibitors.

T1 sequence (P68400 whole entry): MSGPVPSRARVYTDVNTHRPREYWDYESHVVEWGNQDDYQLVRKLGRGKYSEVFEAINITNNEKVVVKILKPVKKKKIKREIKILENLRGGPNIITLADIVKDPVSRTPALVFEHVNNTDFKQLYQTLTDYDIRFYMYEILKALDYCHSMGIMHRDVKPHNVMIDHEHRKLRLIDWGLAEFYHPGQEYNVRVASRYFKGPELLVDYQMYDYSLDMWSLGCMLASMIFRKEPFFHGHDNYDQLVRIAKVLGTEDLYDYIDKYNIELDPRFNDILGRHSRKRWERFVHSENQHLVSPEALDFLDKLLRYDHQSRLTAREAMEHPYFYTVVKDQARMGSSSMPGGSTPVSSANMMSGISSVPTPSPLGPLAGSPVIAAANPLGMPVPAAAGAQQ
T1 sequence (P67870 whole entry partner): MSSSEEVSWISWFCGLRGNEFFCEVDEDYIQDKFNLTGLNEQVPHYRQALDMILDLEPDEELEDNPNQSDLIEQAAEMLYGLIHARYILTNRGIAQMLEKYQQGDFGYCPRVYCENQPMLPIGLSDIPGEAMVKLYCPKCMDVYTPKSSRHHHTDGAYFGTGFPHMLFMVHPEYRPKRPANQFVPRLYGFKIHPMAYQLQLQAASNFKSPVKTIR

Clc1cccc(Nc2nc3cnccc3c3nc4cnccn4c23)c1 [Compound 1, N-(3-chlorophenyl)pyrazino[2′,1′:2,3]imidazo[4,5-c][1,7]naphthyridin-6-amine]
IC50 [1]: 1100 nM
IC50 [2]: 1400 nM
IC50 [3]: 3100 nM
IC50 [4]: 1900 nM
IC50 [5]: 1200 nM
IC50 [6]: 3300 nM
IC50 [7]: 5600 nM
IC50 [8]: 4800 nM
IC50 [9]: 18 nM
